By inhibition is commonly meant how much of the control response was suppressed. A higher inhibition goes with a response far below the control. By IC50 is commonly meant the concentration that gives 50% inhibition.

Read-outs that look alike come from different tables or passages of the source.

Results on two molecules are retold here after patent US20250288599A1, “PHARMACEUTICAL COMPOSITIONS AND METHODS FOR TREATING OSTEOARTHRITIS” (INSIGNIA PHARMACEUTICALS, LLC, priority 2024, published 2025).

Data set [1] has as its system PGE2 release from normal human chondrocytes. Kind of data set: IL-1β-induced PGE2 release from normal human chondrocyte monolayers, 48 h, competitive EIA. Format: cell-based. Here is the method:
Mechanical stress and inflammation are thought to sustain catabolic cycles of extracellular matrix deterioration during osteoarthritis. In particular, PGE2 correlates with increased protease production and discomfort or pain in osteoarthritis.
After 48-hours, PGE2 release was evaluated by competitive EIA, and relative potency was calculated versus dose responses of Dex alone.
After 48 hours, PGE2 release was evaluated by competitive enzyme immunoassay (EIA), and relative potency was calculated versus Dex alone.
Lac is commonly thought to be simply an end-product of anaerobic glycolysis; however, it may also have immunomodulatory effects and promote protein modifications that alter gene expression. The goal of this experiment was to determine how Lac supplementation affects early-phase, inflammatory, and late-stage redifferentiation in chondrocyte models. To establish how Lac may influence inflammation early in osteoarthritis, monolayers of normal human chondrocytes were exposed to Lac dose responses of up to 100 millimolar, concurrently with 0.5 nanograms per milliliter IL-1β for 48 hours. The release of PGE2 was then quantified using competitive EIA. To investigate how Lac affects transcriptional programs in dedifferentiated osteoarthritic chondrocytes, monolayer cultures and micromass pellets were treated for 14 days with 100 millimolar final concentrations of Lac, with and without 10 nanograms per milliliter transforming growth factor beta 3 (TGF-β3). Total RNA was then isolated, and relative expression of SOX9 or Col2a1 was calculated using qRT-PCR, normalized to GAPDH.

Data set [2] has the same test system. Kind of data set: IL-1β-induced PGE2 release from normal human chondrocytes, 24 h, DA vs decanoate working solutions. It counts as cell-based. The settings on record: Homo sapiens, Chondrocyte, 25 micromolar, prepared in medium. Here is the method: The activity of DA working solutions prepared in either saline or lactated ringer's (LR) isotonic solutions was assessed. […] In addition, concentrated decanoate working solutions in saline or LR were prepared and added to the cultures at a final concentration of 25 micromolar. PGE2 release was then compared to matching points on the DA or decanoate medium as well as saline and LR controls.

Data set [3] deals with MCP1 in osteoarthritic human synoviocytes. Kind of data set: IL-1β-induced MCP1 in osteoarthritic-synoviocytes. The settings on record: IL-1β 0.5 ng/mL; 0.5, 0.8 or 1 millimolar DA; 0.1-100 nanomolar Dex. Format: cell-based.
The subject of data set [4] is PGE2 release from osteoarthritic human synoviocytes. Nature of the data set: IL-1β-induced PGE2 and PGD2 release from osteoarthritic-synoviocytes. It counts as cell-based. The following applies: for IC50: Homo sapiens, read-out: IC50 for PGE2 inhibition.
For data set [5], the system named is IL-1β release from human THP1 macrophages. Nature of the data set: Two-hit (LPS then ATP) inflammasome activation model, IL-1β release from THP1 macrophages. Format: cell-based. The following applies: for IC50: Homo sapiens. An excerpt:
The proinflammatory cytokine, IL-1β, is released from cells upon activation of the inflammasome, a multi-protein proinflammatory complex. A two-hit model of inflammasome activation in THP1 macrophages was developed that entails an overnight stimulation with LPS followed by a second proinflammatory stimulus, extracellular ATP, which drives inflammasome assembly and subsequent IL-1β release from the cells into the media.

Data set [6] relates to SOX9 expression in human osteoarthritic chondrocytes. Nature of the data set: SOX9 relative expression in high and low passage osteoarthritic chondrocytes, 7, 14 or 28 days. It counts as cell-based. The following applies: high passage, dedifferentiated osteoarthritic chondrocytes with TGF-β3, 14 days. The text has this: Media was exchanged bi-weekly. […] SOX9 is a transcription factor vital to the development and maintenance of cartilage and is required for chondrogenesis. SOX9 promotes chondrocyte survival and transcriptionally activates cartilage-specific genes. SOX9 is repressed in hypertrophic chondrocytes (i.e. terminally differentiated osteoblast-like cells).

The subject of data set [7] is prostaglandin I2 (PGI2) in primary human synoviocytes. Kind of data set: PGI2 in IL-1β-stimulated primary human osteoarthritic synoviocytes, 24 h. Format: cell-based. The following applies: IL-1β 1 ng/ml. Here is the method:
FIG. 25 is a bar graph that depicts the concentration of prostaglandin I2 (PGI2) present in primary human synoviocytes from patients with osteoarthritis that were stimulated with 1 ng/ml final concentration of IL-1β for 24 hours in the presence of varying concentrations of DA and Dex in view of controls. PGI2 concentration response mirrored PGE2 concentrations after DA treatment. […] It is noted that prostaglandin H2 (PGH2) was also tested and was not detected in either cell culture media or from cell lysates. Without being bound by theory, it is believed that PGH2 is an intermediate and is (near) immediately converted into downstream prostaglandins and therefore levels of PGH2 are not detectable.

The target of data set [8] is Cyclooxygenase-2 (COX-2) (Homo sapiens, UniProt P35354). Nature of the data set: COX-2 inhibitor screen. It counts as biochemical. The settings on record: any of the concentrations tested; Celecoxib positive control.
Excerpt: Celecoxib (Celebrex) was used as a positive control for COX-2.
In data set [9] the target is PLA2 isolated from bee venom (Apis mellifera, UniProt P00630). Format: biochemical.
In data set [10] the test system is PGE2 in primary human osteoarthritic synoviocytes. Kind of data set: Early, pretreatment and intracellular vs secreted PGE2 in IL-1β-stimulated human osteoarthritic synoviocytes. Format: cell-based. The method, then: The concentrations in FIG. 31A were measured at hour three.
Cells were also treated with IL-IRA which inhibits IL-1β by binding the cell-surface […] and inhibiting its dimerization with the IL-1 receptor (IL-1R), effectively blocking IL-1β signaling.
FIG. 33 illustrates two bar graphs that depict the concentrations of PGE2 inside of the cell versus PGE2 that was secreted into the cell culture media. Specifically, the bar graph labeled “Intracellular” illustrates the concentrations of PGE2 inside of the cell and the bar graph labeled “Supernatent” illustrates the concentration of PGE2 that was secreted into the cell culture media. Synoviocytes were stimulated with IL-1β for 6 hours and then cell culture media harvested separately along with collecting cell lysates. […] To test this, the PGE2 concentrations inside of the cells and in the cell culture media were measured to compare them directly to each other.

The subject of data set [11] is arachidonic acid (AA) in primary human synoviocytes. Kind of data set: Early arachidonic acid in IL-1β-stimulated primary human osteoarthritic synoviocytes, 3 h. Format: cell-based. The following applies: IL-1β 1 ng/mL. The method, then: Early concentrations of arachidonic acid (AA) present in primary human synoviocytes from patients with osteoarthritis that were stimulated with 1 ng/mL final concentration interleukin 1-beta (β) for 3 hours in the presence of varying concentrations of Dex and DA in view of controls are depicted in FIG. 32. The concentrations of AA in FIG. 32 were normalized to total protein content from the cell lysates using bicinchoninic acid (BCA).

In data set [12] the test system is Col2a1 expression in dedifferentiated osteoarthritic chondrocytes. Kind of data set: Col2a1 relative expression in high passage osteoarthritic chondrocyte monolayer model with TGF-β. The settings on record: TGF-β added to the model; 1 mM Try, 0.5 mM DA. It counts as cell-based, human. The method, then: (§1) These compounds were tested in a high passage osteoarthritic chondrocyte monolayer model, alone or in combination with other agents, for both transcriptional regulation of standard markers and IL-1β-induced PGE2 production.

The subject of data set [13] is MMP13 expression in dedifferentiated osteoarthritic chondrocytes. Kind of data set: MMP13 regulation in high passage osteoarthritic chondrocyte monolayer model, 28 days. Format: cell-based, human. The settings on record: 28 days of treatment; 1 mM Try, 0.5 mM DA. The method, then:
as §1

For data set [14] the following is noted: cited from earlier work.
Data set [15] relates to MMP13 expression in human osteoarthritic chondrocytes. Kind of data set: MMP13 relative expression in human osteoarthritic chondrocytes treated with DA and/or Try. The following applies: 28-day monolayer culture; 0.5 mM DA, 1 mM Try. Format: cell-based.
Description: (§2) Total mRNA was then isolated at the indicated times, and qRTPCR was performed with primers specific for MMP13, Col2a1, and the housekeeping gene GAPDH. Relative expression was then calculated versus controls, with normalization to GAPDH.
In data set [16] the test system is Col2a1 expression in human osteoarthritic chondrocytes. Nature of the data set: Col2a1 relative expression in human osteoarthritic chondrocytes treated with DA and/or Try with TGF-β3. Format: cell-based. The following applies: 14-day monolayer culture with TGF-β3; 0.5 mM DA, 1 mM Try.
Description: as §2

Chain of PLA2 isolated from bee venom (P00630 34-167 limits assumed): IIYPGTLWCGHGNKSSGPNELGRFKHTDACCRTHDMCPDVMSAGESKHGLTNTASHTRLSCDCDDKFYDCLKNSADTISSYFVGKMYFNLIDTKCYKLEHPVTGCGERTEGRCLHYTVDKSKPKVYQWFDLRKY
Chain of Cyclooxygenase-2 (COX-2) (P35354 18-604, species assumed): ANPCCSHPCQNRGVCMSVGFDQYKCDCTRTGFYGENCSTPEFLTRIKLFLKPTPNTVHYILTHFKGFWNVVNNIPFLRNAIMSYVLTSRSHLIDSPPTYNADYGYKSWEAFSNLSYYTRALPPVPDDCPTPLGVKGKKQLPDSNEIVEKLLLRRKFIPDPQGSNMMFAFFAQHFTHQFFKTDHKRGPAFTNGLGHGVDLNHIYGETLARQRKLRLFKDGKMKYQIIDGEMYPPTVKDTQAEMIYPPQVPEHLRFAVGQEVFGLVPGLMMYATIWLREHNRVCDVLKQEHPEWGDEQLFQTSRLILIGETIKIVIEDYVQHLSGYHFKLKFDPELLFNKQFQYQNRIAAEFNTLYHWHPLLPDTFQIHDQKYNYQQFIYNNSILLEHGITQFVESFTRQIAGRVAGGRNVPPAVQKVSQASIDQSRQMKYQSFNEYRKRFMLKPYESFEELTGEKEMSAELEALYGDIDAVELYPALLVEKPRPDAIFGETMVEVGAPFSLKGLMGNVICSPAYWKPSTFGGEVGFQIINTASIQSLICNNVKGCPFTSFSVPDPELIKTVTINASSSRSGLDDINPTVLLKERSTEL

As to `CCCCCCCCCC(=O)O` [DA, decanoic acid], in data set [1] (Homo sapiens, Chondrocyte, DA 500 micromolar final, IL-1β 500 pg/mL, 48 h), testing at 500 µM gave an inhibition of 100%. Further, in [1] (p-value≤0.05 versus medium controls), the “final concentration at which significant inhibition of PGE2 release was observed” value amounted to 6 µM. Testing at 25 µM in [2] gave an inhibition of 62.4%. The “effect on MCP1” value in data set [3] is recorded as “reduction in MCP1 in a dose dependent manner”. For the same molecule, in data set [4], the “increase of DA potency by 100 picomolar Dex” value was found to be 2.2 ×. Moreover, the 50% inhibitory concentration (IC50) in [4] (DA alone, IL-1β 0.5 ng/mL) came out at 19.4 µM; in data set [4] (DA in the presence of 100 picomolar Dex), 8.62 µM; in data set [5] (THP-1, DA alone, 0.02 to 1.8 millimolar, three independent experiments), 125 µM; in [5] (THP-1, DA with addition of 25 nanomolar Dex), 65 µM; in [5] (THP-1, repeated experiments comparing DA to sodium decanoate), 172 µM. Further, the “DA concentration above which PGE2 and PGD2 release was inhibited” value in data set [4] (IL-1β 0.5 ng/mL) was “above 1 micromolar”. For the same molecule, the “increased DA potency by 25 nanomolar Dex” value in data set [5] is given as 1.917 ×. The SOX9 expression entry in [6] is listed as “increased SOX9 transcription”. Also, in data set [7], the “secreted PGI2 levels” value is given as “decreases secreted PGI2 levels”. Also, the “inhibition of COX-2 activity” value in [8] was “no observed inhibition”. Besides, in [9], the PLA2 activity inhibition result was “no significant signs of PLA2 activity inhibition”. Besides, the “PGE2 release after pretreatment (5 minutes, 1 hour, or 2 hours) then IL-1β 10 minutes or 1 hour” value in data set [10] (200 nanomolar DA or 500 nanograms/milliliter IL-1RA, IL-1β 1 nanogram/milliliter) is “blocked the low-level activation”. In addition, in [10] (IL-1β 1 ng/ml, 6 hours), the “intracellular versus secreted PGE2” value is “causes PGE2 to build up intracellularly instead of getting secreted”. In data set [10] (measured at hour three, IL-1β 1 ng/mL), the PGE2 concentration entry was “less than 5000 pg/ml”. In addition, the “AA concentration normalized to total protein” value in data set [11] is recorded as “lower than that of the control with IL-1β”. Moreover, the Col2a1 regulation in data set [12] amounted to 26 fold. For the same molecule, the MMP13 regulation in [13] was 1.12 fold. Moreover, the “pKa (negative log of acid dissociation constant)” value in data set [14] was “about 4.9”.
In the case of `N[C@@H](Cc1c[nH]c2ccccc12)C(=O)O` [Try, tryptophan], in data set [12], the Col2a1 regulation is −1.36 fold. In addition, the MMP13 regulation in data set [13] is on record as −3.32 fold. For the same molecule, the “Observed Relative expression of MMP13” value in [15] was −2.6 fold. Moreover, the “Observed Relative expression of Col2a1” value in data set [16] is on record as −1.4 fold.
